Assay results as given in ChEMBL document CHEMBL2074134, “Identification and characterization of human organic anion transporter 3 expressing predominantly in the kidney” (Mol Pharmacol, 2001).

What was measured:
[1] = target: T1, Organic anion transporter 3 (Homo sapiens, UniProt Q8TCC7); assay: (§1) TP_TRANSPORTER: uptake in Xenopus laevis oocytes; type: functional, cell-based; conditions: oocyte
T1 sequence (Q8TCC7 whole entry): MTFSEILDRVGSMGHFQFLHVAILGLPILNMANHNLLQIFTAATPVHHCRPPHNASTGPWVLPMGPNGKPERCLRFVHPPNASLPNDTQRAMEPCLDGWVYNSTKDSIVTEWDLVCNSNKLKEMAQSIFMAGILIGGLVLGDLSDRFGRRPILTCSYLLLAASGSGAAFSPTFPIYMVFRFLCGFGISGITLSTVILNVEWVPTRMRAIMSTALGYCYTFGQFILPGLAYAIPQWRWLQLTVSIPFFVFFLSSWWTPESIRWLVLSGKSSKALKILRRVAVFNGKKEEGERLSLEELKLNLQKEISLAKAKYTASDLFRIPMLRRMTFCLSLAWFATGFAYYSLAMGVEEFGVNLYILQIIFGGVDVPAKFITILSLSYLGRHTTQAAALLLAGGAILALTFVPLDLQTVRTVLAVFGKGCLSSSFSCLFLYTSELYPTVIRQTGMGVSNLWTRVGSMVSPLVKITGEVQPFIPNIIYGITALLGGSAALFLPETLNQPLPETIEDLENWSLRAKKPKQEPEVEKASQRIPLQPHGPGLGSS

[2] = target: T1, Organic anion transporter 3; assay: TP_TRANSPORTER: inhibition of E1S uptake (E1S: 0.05 uM, Ibuprofen: 5 uM) in Xenopus laevis oocytes; type: functional, cell-based; conditions: oocyte
[3] = target: T1, Organic anion transporter 3; assay: TP_TRANSPORTER: inhibition of E1S uptake (E1S: 0.05 uM, Quinidine: 5 uM) in Xenopus laevis oocytes; type: functional, cell-based; conditions: oocyte
[4] = target: T1, Organic anion transporter 3; assay: TP_TRANSPORTER: inhibition of E1S uptake (E1S: 0.05 uM, Bumetanide: 5 uM) in Xenopus laevis oocytes; type: functional, cell-based; conditions: oocyte
[5] = target: T1, Organic anion transporter 3; assay: TP_TRANSPORTER: inhibition of E1S uptake (E1S: 0.05 uM, Diclofenac: 5 uM) in Xenopus laevis oocytes; type: functional, cell-based; conditions: oocyte
[6] = target: T1, Organic anion transporter 3; assay: TP_TRANSPORTER: inhibition of E1S uptake (E1S: 0.05 uM, PCG: 5 uM) in Xenopus laevis oocytes; type: functional, cell-based; conditions: oocyte
[7] = target: T1, Organic anion transporter 3; assay: TP_TRANSPORTER: inhibition of E1S uptake (E1S: 0.05 uM, Indomethacin: 5 uM) in Xenopus laevis oocytes; type: functional, cell-based; conditions: oocyte
[8] = target: T1, Organic anion transporter 3; assay: TP_TRANSPORTER: inhibition of E1S uptake (E1S: 0.05 uM, DHEAS: 5 uM) in Xenopus laevis oocytes; type: functional, cell-based; conditions: oocyte
[9] = target: T1, Organic anion transporter 3; assay: TP_TRANSPORTER: inhibition of E1S uptake (E1S: 0.05 uM, AZT: 5 uM) in Xenopus laevis oocytes; type: functional, cell-based; conditions: oocyte
[10] = target: T1, Organic anion transporter 3; assay: TP_TRANSPORTER: inhibition of E1S uptake (E1S: 0.05 uM, Guanidine: 5 uM) in Xenopus laevis oocytes; type: functional, cell-based; conditions: oocyte
[11] = target: T1, Organic anion transporter 3; assay: TP_TRANSPORTER: inhibition of E1S uptake (E1S: 0.05 uM, Corticosterone: 5 uM) in Xenopus laevis oocytes; type: functional, cell-based; conditions: oocyte
[12] = target: T1, Organic anion transporter 3; assay: TP_TRANSPORTER: inhibition of E1S uptake (E1S: 0.05 uM, Glutarate: 5 uM) in Xenopus laevis oocytes; type: functional, cell-based; conditions: oocyte
[13] = target: T1, Organic anion transporter 3; assay: TP_TRANSPORTER: inhibition of E1S uptake (E1S: 0.05 uM, Ouabain: 5 uM) in Xenopus laevis oocytes; type: functional, cell-based; conditions: oocyte
[14] = target: T1, Organic anion transporter 3; assay: TP_TRANSPORTER: inhibition of E1S uptake (E1S: 0.05 uM, BSP: 5 uM) in Xenopus laevis oocytes; type: functional, cell-based; conditions: oocyte
[15] = target: T1, Organic anion transporter 3; assay: TP_TRANSPORTER: inhibition of E1S uptake (E1S: 0.05 uM, Probenecid: 5 uM) in Xenopus laevis oocytes; type: functional, cell-based; conditions: oocyte
[16] = substrate: C[C@]12CC[C@@H]3c4ccc(OS(=O)(=O)O)cc4CC[C@H]3[C@@H]1CCC2=O; assay: as §1; type: functional, cell-based, Oocyte
[17] = substrate: Nc1ccc(C(=O)NCC(=O)O)cc1; assay: as §1; type: functional, cell-based, Oocyte
[18] = substrate: CN(Cc1cnc2nc(N)nc(N)c2n1)c1ccc(C(=O)N[C@@H](CCC(=O)O)C(=O)O)cc1; assay: as §1; type: functional, cell-based, Oocyte
[19] = substrate: CN/C(=N/CCSCc1nc[nH]c1C)NC#N; assay: cells, lysate or membranes named

Question: Which Activity [1] does the source give for `Nc1nc2c(ncn2COCCO)c(=O)[nH]1` [ACYCLOVIR] here?
Answer: is not a substrate [-]

Question: Which Activity [1] does the source give for `C[C@@H]1Cc2c(Cl)cc(C(=O)N[C@@H](Cc3ccccc3)C(=O)O)c(O)c2C(=O)O1` [3R14S-OCHRATOXIN A] here?
Answer: substrate [+]

Question: With `CCCC(CCC)C(=O)O` [VALPROIC ACID] as the molecule, how does the Activity [1] read?
Answer: is not a substrate [-]

Question: How did the Activity [2] turn out when `CC(C)Cc1ccc(C(C)C(=O)O)cc1` (centres undefined) [IBUPROFEN] was run?
Answer: inhibitor [(at a rough estimate) 10 % of control]

Question: And the Activity [1]?
Answer: is not a substrate [-]

Question: Which Activity [1] does the source give for `O=C(O)[C@H]1O[C@@H](O)[C@H](O)[C@@H](O)[C@@H]1O` [GLUCURONATE] here?
Answer: is not a substrate [-]

Question: With `C=C[C@H]1C[N@@]2CC[C@H]1C[C@@H]2[C@@H](O)c1ccnc2ccc(OC)cc12` [QUINIDINE] as the molecule, how does the Activity [3] read?
Answer: inhibitor [(at a rough estimate) 55 % of control]

Question: For `O=C(O)c1ccccc1O` [SALICYLIC ACID], which Activity [1] is on record?
Answer: substrate [+]

Question: With `CCCCNc1cc(C(=O)O)cc(S(N)(=O)=O)c1Oc1ccccc1` [BUMETANIDE] as the molecule, how does the Activity [4] read?
Answer: inhibitor [(at a rough estimate) 10 % of control]

Question: `O=C(O)Cc1ccccc1Nc1c(Cl)cccc1Cl` [DICLOFENAC] was tested. Which Activity [5] did it give?
Answer: inhibitor [(at a rough estimate) 10 % of control]

Question: For `O=c1[nH]c(=O)c2[nH]c(=O)[nH]c2[nH]1` [URIC ACID], which Activity [1] is on record?
Answer: substrate [+]

Question: How did the Activity [6] turn out when `CC1(C)S[C@@H]2[C@H](NC(=O)Cc3ccccc3)C(=O)N2[C@H]1C(=O)O` [PENICILLIN G] was run?
Answer: inhibitor [(at a rough estimate) 35 % of control]

Question: With `COc1ccc2c(c1)c(CC(=O)O)c(C)n2C(=O)c1ccc(Cl)cc1` [INDOMETHACIN] as the molecule, how does the Activity [7] read?
Answer: inhibitor [(at a rough estimate) 15 % of control]

Question: How did the Activity [1] turn out when `C[C@]12CC[C@H](OS(=O)(=O)O)CC1=CC[C@@H]1[C@@H]2CC[C@]2(C)C(=O)CC[C@@H]12` [PRASTERONE SULFURIC ACID] was run?
Answer: substrate [+]

Question: And the Activity [8]?
Answer: inhibitor [(at a rough estimate) 10 % of control]

Question: `Cc1cn([C@H]2C[C@H](N=[N+]=[N-])[C@@H](CO)O2)c(=O)[nH]c1=O` [ZIDOVUDINE] was tested. Which Activity [9] did it give?
Answer: is not an inhibitor [-]

Question: With `N=C(N)N` [GUANIDINE] as the molecule, how does the Activity [10] read?
Answer: is not an inhibitor [-]

Question: `C[C@]12C[C@H](O)[C@H]3[C@@H](CCC4=CC(=O)CC[C@@]43C)[C@@H]1CC[C@@H]2C(=O)CO` [CORTICOSTERONE] was tested. Which Activity [11] did it give?
Answer: inhibitor [(at a rough estimate) 30 % of control]

Question: What does the source list for `O=C(O)CCCC(=O)O` [GLUTARATE]?
Answer: Activity [1]: substrate [+]; Activity [12]: inhibitor [(at a rough estimate) 35 % of control]

Question: With `C[C@]12CC[C@@H]3c4ccc(O)cc4CC[C@H]3[C@@H]1CC[C@@H]2O[C@@H]1O[C@H](C(=O)O)[C@@H](O)[C@H](O)[C@H]1O` [ESTRADIOL 17B GLUCURONIDE] as the molecule, how does the Activity [1] read?
Answer: substrate [+]

Question: With `C[C@@H]1O[C@@H](O[C@H]2C[C@@H](O)[C@]3(CO)[C@H]4[C@H](O)C[C@]5(C)[C@@H](C6=CC(=O)OC6)CC[C@]5(O)[C@@H]4CC[C@]3(O)C2)[C@H](O)[C@H](O)[C@H]1O` [OUABAIN] as the molecule, how does the Activity [13] read?
Answer: is not an inhibitor [-]

Question: Which Activity [1] does the source give for `O=C(O)CCC(=O)O` [SUCCINIC ACID] here?
Answer: is not a substrate [-]

Question: For `O=C1OC(c2ccc(O)c(S(=O)(=O)[O-])c2)(c2ccc(O)c(S(=O)(=O)[O-])c2)c2c(Br)c(Br)c(Br)c(Br)c21.[Na+].[Na+]` [SULFOBROMOPHTHALEIN SODIUM], which Activity [14] is on record?
Answer: inhibitor [(at a rough estimate) 55 % of control]

Question: For `CCCN(CCC)S(=O)(=O)c1ccc(C(=O)O)cc1` [PROBENECID], which Activity [15] is on record?
Answer: inhibitor [(at a rough estimate) 10 % of control]

B1: Organic anion transporter 3 (Homo sapiens) (protein)
chain: T1 sequence (Q8TCC7 whole entry)
Question: With B1 as the molecule, how does the Km [16] read?
Answer: 3.1 µM

Question: What about the Km [17] of the same molecule?
Answer: 87.2 µM

Question: And the Km [18]?
Answer: 10.9 µM

Question: What about the Km [19] of the same molecule?
Answer: 57.4 µM
